# Experimental data reported in patent US20070248646A1, “Use of azurocidin inhibitors in prevention and treatment of ocular vascular leakage” (priority 2006, published 2007).
# B1: azurocidin (protein, UniProt P20160 27-248, looked up)
# Azurocidin: IVGGRKARPRQFPFLASIQNQGRHFCGGALIHARFVMTAASCFQSQNPGVSTVVLGAYDLRRRERQSRQTFSISSMSENGYDPQQNLNDLMLLQLDREANLTSSVTILPLPLQNATVEAGTRCQVAGWGSQRSGGRLSRFPRFVNVTVTPEDQCRPNNVCTGVLTRRGGICNGDGGTPLVCEGLAHGVASFSLGPCGRGPDFFTRVALFRDWIDGVLNNPGP
# notes: human neutrophil azurocidin
# What was measured:
# [1] = tested on: VEGF-induced retinal leukostasis; assay: Concanavalin A ex vivo retinal leukostasis quantification, VEGF-induced; assay type: in vivo, Brown Norway rats
# Experimental: (§1) This study employed Brown Norway rats, AZ (1 μg, 10 μg, 20 μg), PBS, aprotinin, VEGF164, and polyclonal anti-AZ antibody (1 μg). Briefly, Brown Norway rats received intravitreal injections of AZ (1 μg, 10 μg and 20 μg) in one eye and PBS in the contralateral eye. BRB breakdown was quantified using the Evans Blue (EB) technique at 1 hour, 3 hours, and 24 hours after intravitreal injection of AZ or PBS. To assess whether AZ induced retinal leukostasis, firm leukocyte adhesion was quantified at 3 hours and 24 hours post AZ injection (10 μg) using the ex vivo conconavalin leukostasis assay. To block AZ, rats were treated with a single intravenous injection of aprotinin (30,000KIU), prior to the intravitreal injections. To investigate whether AZ was involved in VEGF-induced BRB breakdown, rats received intravitreal injections of 50 ng recombinant mouse VEGF164 in one eye and PBS in the other eye and were treated intravenously with aprotinin (50,000KIU every eight hours) or polyclonal anti-AZ antibody (1 μg). BRB breakdown and retinal leukostasis were quantified 24 hours after VEGF injection.
# Deep anesthesia was induced with xylazine and ketamine as above. The chest cavity was carefully opened and the left ventricle was entered with a 14-gauge perfusion cannula fixed to a vessel clamp; care was taken to avoid ventricular obstruction. The right atrium was opened with a 12-gauge needle to achieve outflow. With the heart providing the motive force, 250 ml/kg PBS (roughly 30 ml of PBS quickly) was perfused to clear erythrocytes and non-sticking leukocytes, followed by perfusion with FITC-coupled Concanavalin A lectin (20 μg/ml in PBS, pH 7.4, total concentration 5 mg/kg) (Vector Labs, Burlingame, Calif.). The latter stained adherent leukocytes and the vascular endothelium. Lectin staining was followed by PBS perfusion (30 ml quickly).
# The retinas were flat-mounted in a water-based fluorescence-anti-fading medium (Southern Biotechnology, Birmingham, Ala.) and imaged via fluorescence microscopy (Leica upright microscope, Hamamatsu digital high sensitivity camera, openlab imaging software). The total number of adherent leukocytes per retina was counted in a masked fashion.
# [2] = tested on: isolated leukocytes; conditions: VEGF 5-500 ng/ml, 20 minutes
# Experimental: Additionally, in vitro it is investigated whether VEGF can cause the release of AZ from isolated leukocytes. The supernatant of VEGF-treated leukocytes is used to detect AZ using a Western Blot. Briefly, 10-20 ml of human blood is obtained by phlebotomy from healthy volunteers of both genders and all age groups. Leukocyte subtypes (i.e., neutrophils) are isolated using a percoll gradient technique. Then, 1-2×10^6 leukocytes are incubated for 20 minutes at room temperature with different concentrations (5-500 ng/ml) of human VEGF isoforms (121, 165, and 189) in a total volume of 200-300 μl of 1% FBS-containing PBS. Samples are then centrifuged at 1,500 rpm for 10 minutes, and 150-200 μl of the supernatant is collected for AZ-detection using the Western Blot technique with a commercially available antibody against human AZ (R&D systems).
# [3] = tested on: VEGF-induced blood retinal barrier breakdown; assay: VEGF-induced blood retinal barrier breakdown (Evans Blue); assay type: in vivo, Brown Norway rats; conditions: 24 hours after intravitreal 50 ng VEGF
# Experimental: as §1
# Rats received intravitreous injections of 5 μl of sterile phosphate-buffered saline (PBS) containing 50 ng VEGF164 (R&D Systems, Minneapolis, Minn.) in one eye and 5 μl of sterile phosphate-buffered saline (PBS) in the contralateral eye. The retinas were analyzed for leakage 24 hours after VEGF injection.
# In a second group, the rats were additionally treated intravenously with aprotinin (Trasylol®, Bayer Pharmaceuticals). 50,000KIU of aprotinin (5 ml of Trasylol®) was administered intravenously through the tail vein 1 hour before, as well as 8 hours and 16 hours after, the intravitreal injection of VEGF. The retinas were analyzed 24 hours after VEGF administration.
# In a third group, rats were treated with intravitreous injections of 1 μg of goat anti-human azurocidin polyclonal antibody (5 μl of a 200 μg/ml antibody solution, Santa Cruz biotechnology) or control goat isotype IgG (R&D system) in the VEGF injected eye 6 hours after VEGF administration.
# Retinal vascular permeability was quantified as previously described (Qaum et al. (2002) supra, Xu et al. (2001) INVEST. OPHTHALMOL. VIS. SCI. 42; 789-94). After the animals were deeply anesthetized, Evans blue dye (Sigma) dissolved in normal saline (30 mg/ml) was injected through the tail vein over 10 seconds at a dosage of 45 mg/kg. Blood samples were obtained from the left ventricle, just before perfusion at 2 hours, to obtain the time-average Evans blue dye plasma concentration. These blood samples were centrifuged at 12,000 rpm for 15 minutes and diluted to 1/10,000th of their initial concentration in formamide (Sigma). The background-subtracted absorbance was determined by measuring each sample at 620 nm (the absorbance maximum for Evans blue dye in formamide) and 740 nm (the absorbance minimum) with a spectrophotometer. The concentration of dye in the plasma was calculated from a standard curve of Evans blue dye in formamide. After the dye had circulated for 2 hours, the chest cavity was opened, and the rats were perfused through the left ventricle with 1% paraformaldehyde in citrate buffer (0.05 M, pH 3.5) at a physiological pressure of 120 mm Hg. The retinas were then carefully dissected under an operating microscope. After measurement of the retinal weight, Evans blue dye was extracted by incubating each retina in 0.180 ml of formamide for 18 hours at 70° C. The extract was ultracentrifuged at a speed of 14,000 rpm for 60 minutes at 25° C. Sixty microliters of the supernatant was used for spectrophotometric measurement at 620 nm and 740 nm. The background-subtracted absorbance was determined by measuring each sample at 620 nm (the absorbance maximum for Evans blue dye in formamide) and 740 nm (the absorbance minimum). The concentration of dye in the extracts was calculated from a standard curve of Evans blue dye in formamide. […]
# [4] = tested on: retinal vascular permeability; assay: Qualitative evaluation of retinal vascular permeability with 20-kDa FITC conjugated dextran; assay type: in vivo, Brown Norway rats; conditions: flat-mount retinas, VEGF-injected eyes with or without aprotinin
# Experimental: Retinal vascular permeability was documented in a histological manner by intravenous injection of 20-kDa FITC conjugated dextran (50 mg/Kg, Sigma Aldrich). Rats were sacrificed 30 minutes later with intracardiac perfusion of 4% paraformaldehyde to fix the dextran conjugate in the tissues. The retinas were carefully dissected and flat mounted in anti-fading medium (Vector Laboratories). Flat-mount retinas were examined by fluorescent microscopy. Digital color enhancement (green) was equally applied to all images for improved visualization of fluorescence.
# [5] = tested on: murine brain microvascular endothelial cells (bEND3); assay: Transendothelial electrical resistance (TEER), in vitro model of the BBB; assay type: cell-based; conditions: AZ 25 μg/ml, VEGF 100 ng/ml
# Experimental: The purpose of this experiment was to investigate the direct effects of VEGF and/or AZ on the BBB. This study used an in vitro model of the BBB in which transendothelial electrical resistance (TEER) in barrier-privileged murine brain microvascular endothelial cells (bEND3) was measured. The results provide support that the direct effects of VEGF and AZ on the endothelium of the BBB, although related, may be distinct.
# Murine brain microvascular endothelial cells (bEND3) were grown on 0.4 μm fibronectin-coated inserts in 24-well plates (BD Bioscience, San Jose, Calif.). After the cells reached confluency, the cells were stimulated with AZ (AZ, 25 μg/ml), VEGF (100 ng/ml) or both. Electrical resistance was measured at the indicated time-points after the treatment by using a volt-ohmmeter (EVOM, World Precision Instruments, Sarasota, Fla.) with the electrode reproducibly positioned in each well. Transendothelial electrical resistance (TEER) values for each Transwell were calculated by subtracting the electrical resistance of the blank wells (coated filters without cells) prepared and treated as the experimental samples. All experiments were carried out in quadruplicate. The results were expressed as Mean±SEM from n=4 independent experiments.
# [6] = tested on: retinal vascular permeability (blood retina barrier); assay: Evans Blue BRB breakdown after intravitreal azurocidin; assay type: in vivo, Brown Norway rats; conditions: intravitreal 20 μg
# Experimental: as §1
# Rats received intravitreous injections of 5 μl of sterile phosphate-buffered saline (PBS) containing 20 μg human neutrophil azurocidin (Athens Research and Biotechology, Atlanta, Ga.) in one eye and 5 μl of sterile phosphate-buffered saline (PBS) in the contralateral eye. The retinas were analyzed 45 minutes, 3 hours, and 24 hours after azurocidin injection.
# Retinal vascular permeability was quantified as previously described (Qaum et al. (2002) supra, Xu et al. (2001) INVEST. OPHTHALMOL. VIS. SCI. 42; 789-94). After the animals were deeply anesthetized, Evans blue dye (Sigma) dissolved in normal saline (30 mg/ml) was injected through the tail vein over 10 seconds at a dosage of 45 mg/kg. Blood samples were obtained from the left ventricle, just before perfusion at 2 hours, to obtain the time-average Evans blue dye plasma concentration. These blood samples were centrifuged at 12,000 rpm for 15 minutes and diluted to 1/10,000th of their initial concentration in formamide (Sigma). The background-subtracted absorbance was determined by measuring each sample at 620 nm (the absorbance maximum for Evans blue dye in formamide) and 740 nm (the absorbance minimum) with a spectrophotometer. The concentration of dye in the plasma was calculated from a standard curve of Evans blue dye in formamide. After the dye had circulated for 2 hours, the chest cavity was opened, and the rats were perfused through the left ventricle with 1% paraformaldehyde in citrate buffer (0.05 M, pH 3.5) at a physiological pressure of 120 mm Hg. The retinas were then carefully dissected under an operating microscope. After measurement of the retinal weight, Evans blue dye was extracted by incubating each retina in 0.180 ml of formamide for 18 hours at 70° C. The extract was ultracentrifuged at a speed of 14,000 rpm for 60 minutes at 25° C. Sixty microliters of the supernatant was used for spectrophotometric measurement at 620 nm and 740 nm. The background-subtracted absorbance was determined by measuring each sample at 620 nm (the absorbance maximum for Evans blue dye in formamide) and 740 nm (the absorbance minimum). The concentration of dye in the extracts was calculated from a standard curve of Evans blue dye in formamide. Blood-retinal barrier breakdown was calculated as previously described (Qaum et al (2002) supra, Xu et al. (2001) supra). Briefly, as mentioned, the optical density of the formamide containing tissue-extracted Evans Blue dye and that of the animals' plasma were measured at two different wavelengths (620 and 740 nm). The values were then inserted into the following equation. [formula] Results were expressed as a percentage of the value in control eyes. As used through each of Examples 1 -12, the units for results from the EB technique are μl plasma/g retina/h. Ex Vivo Quantification of Retinal Leukostasis
Molecule,"leukocyte adhesion as a percentage of leukocyte adhesion in the contralateral PBS-injected eye ([1]; 24 hours after 50 ng VEGF, aprotinin 50,000 KIU i.v. 1 hour before, 8 and 16 hours after) [%]","fold increase in total number of leukocytes adherent to the retina vessels compared to PBS-injected eyes ([1]; intravitreal 50 ng VEGF, 24 hours post injection) [fold]",anticipated release of AZ from leukocytes [2],BRB breakdown as percentage of the value in control eyes [3],"Evans Blue retinal leakage in VEGF-injected eye ([3]; PBS eye 9.6±1.4 (VEGF alone), 5.4±1.4 (with aprotinin)) [μl plasma/g retina/h]","fold increase in retinal vascular leakage compared to the PBS injected eye ([3]; aprotinin i.v. 50,000KIU every eight hours, antibody 1 μg intravitreal 6 hours after VEGF) [fold]",retinal distribution of intravenously injected 20 kDa FITC-conjugated dextran [4],TEER after 6 hours until 24 hours after treatment [5],TEER up to 6 hours after treatment [5],"TEER, first 30 minutes after incubation [5]",time course of increase in retinal vascular permeability [6],"Evans Blue retinal leakage ([6]; 3 to 5 hours post injection, PBS eye 8.3±1.4) [μl plasma/g retina/h]","fold increase in Evans Blue retinal leakage compared to control eyes ([6]; 3 to 5 hours post injection, n=11) [fold]","Evans Blue retinal leakage ([6]; 24 hours post-injection, PBS eye 8.7±1.8) [μl plasma/g retina/h]","fold increase in Evans Blue retinal leakage compared to control eyes ([6]; 24 hours post-injection, n=6) [fold]","fold increase in Evans Blue retinal leakage compared to control eyes ([6]; approximately one to three hours after injection, n=8) [fold]","Evans Blue retinal leakage ([6]; one to three hours after injection, PBS eye 5.8±1.4) [μl plasma/g retina/h]"
VEGF,308,3,induces the release of AZ from leukocytes,320%±74,29.7±7.5,3.2±0.74,fluorescence diffusely distributed throughout the retinal tissues at both intraluminal and extravascular locations,showed no sign of recovery in the TEER values,remained at the reduced levels until 6 hours after treatment,rapid and significant drop of resistance,–,–,–,–,–,–,–
B1,–,–,–,–,–,–,–,started to recover to normal levels and reached higher values than untreated control,remained at the reduced levels until 6 hours after treatment,rapid and significant drop of resistance,with a peak one to three hours post administration,21±2.3,2.7,16.5±2.8,1.7,7.7,45±17
